For 13 molecules, T/C results are on record in PubChem BioAssay AID256 (DTP/NCI, 2004).

The structures appear in SMILES notation. “And” between values parts separate entries of the source, which are not always exact repeats. Equal values may be shown once. Inconclusive results and toxic doses are left out.

This experiment deals with CD2F1 mice, L1210 leukemia ip, survival T/C. In words: NCI In Vivo Anticancer Drug Screen. Data for tumor model L1210 Leukemia (intraperitoneal) in CD2F1 (CDF1) mice. As to conditions: higher = longer survival. Put shortly:
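Activity against a transplanted murine tumor was judged by comparing the compound group with a vehicle group. The outcome in the treated animals was divided by that in the controls.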

The mark [1] stands for this setting: endpoint: mean survival time, dose: 100.0 mg/kg/injection, schedule: Q04DX003 (ip), vehicle: saline with Tween-80.
The mark [2] stands for this setting: endpoint: mean survival time, dose: 200.0 mg/kg/injection, schedule: Q04DX003 (ip), vehicle: saline with Tween-80.
Setting [3] is: endpoint: mean survival time, dose: 400.0 mg/kg/injection, schedule: Q04DX003 (ip), vehicle: saline with Tween-80.

For `CC[N](CC)[Ge]([CH2]C)[CH2]C.CC[N](CC)[Ge]([CH2]C)[CH2]C`, the T/C by setting is: (endpoint: mean survival time, dose: 3.12 mg/kg/injection, schedule: Q01DX009 (ip), vehicle: saline) 98 % of control; (endpoint: mean survival time, dose: 3.12 mg/kg/injection, schedule: Q01DX009 (ip), vehicle: suspension in saline) 98 % of control; (endpoint: mean survival time, dose: 6.25 mg/kg/injection, schedule: Q01DX009 (ip), vehicle: saline) 98 % of control; (endpoint: mean survival time, dose: 6.25 mg/kg/injection, schedule: Q01DX009 (ip), vehicle: suspension in saline) 114 % of control; (endpoint: mean survival time, dose: 12.5 mg/kg/injection, schedule: Q01DX009 (ip), vehicle: saline) 98 % of control; (endpoint: mean survival time, dose: 12.5 mg/kg/injection, schedule: Q01DX009 (ip), vehicle: suspension in saline) 106 % of control. Moreover, the T/C by setting is: (endpoint: mean survival time, dose: 25.0 mg/kg/injection, schedule: Q01DX009 (ip), vehicle: saline) 101 % of control; (endpoint: mean survival time, dose: 25.0 mg/kg/injection, schedule: Q01DX009 (ip), vehicle: suspension in saline) 97 % of control; (endpoint: mean survival time, dose: 50.0 mg/kg/injection, schedule: Q01DX009 (ip), vehicle: saline) 110 % of control; (endpoint: mean survival time, dose: 50.0 mg/kg/injection, schedule: Q01DX009 (ip), vehicle: suspension in saline) 101 % of control.
With `O.O.[NH-]C1CCCCC1[NH-].[Pt+2]` (centres undefined), the T/C (endpoint: mean survival time, dose: 0.31 mg/kg/injection, schedule: Q01DX009 (ip), vehicle: dextrose) is 109 % of control; the T/C (endpoint: mean survival time, dose: 0.63 mg/kg/injection, schedule: Q04DX003 (ip), vehicle: water) was 124 % of control; the T/C (endpoint: mean survival time, dose: 1.25 mg/kg/injection, schedule: Q01DX009 (ip), vehicle: dextrose) is 124 % of control.
As to `Cc1cc2c3ccccc3nc(C(F)(F)F)n2n1`, the T/C is 96 % of control (endpoint: mean survival time, dose: 100.0 mg/kg/injection, schedule: Q04DX003 (ip), vehicle: saline sonified); 100 % of control (endpoint: mean survival time, dose: 200.0 mg/kg/injection, schedule: Q04DX003 (ip), vehicle: saline sonified); 100 % of control (endpoint: mean survival time, dose: 400.0 mg/kg/injection, schedule: Q04DX003 (ip), vehicle: saline sonified).
Consider `CCCCS(=O)(=O)C1CCCC1=O` (centres undefined), for which the T/C runs as follows: under setting [1], 102 % of control; under setting [2], 102 % of control; under setting [3], 102 % of control.
In the case of `CC1/C(=N/O)C(=O)c2ccccc21` (centres undefined), the T/C runs as follows: (endpoint: mean survival time, dose: 50.0 mg/kg/injection, schedule: Q01DX009 (ip), vehicle: saline with Tween-80) 102 % of control; (endpoint: mean survival time, dose: 100.0 mg/kg/injection, schedule: Q01DX001 (ip), vehicle: saline with Tween-80) 91 % of control; (endpoint: mean survival time, dose: 100.0 mg/kg/injection, schedule: Q01DX009 (ip), vehicle: saline with Tween-80) 86 % of control; (endpoint: mean survival time, dose: 200.0 mg/kg/injection, schedule: Q01DX001 (ip), vehicle: saline with Tween-80) 97 % of control.
With `O=C(O)C1C2C=CC(C2)C1C(=O)O` (centres undefined), the T/C under setting [1] was 97 % of control, the T/C under setting [2] was 92 % of control and the T/C under setting [3] is 98 % of control.
As to `CCCCCCC(C(=O)OCC)P(=O)(OCC)OCC` (centres undefined), the T/C (endpoint: mean survival time, dose: 18.75 mg/kg/injection, schedule: Q01DX009 (ip), vehicle: saline with Tween-80) was 98 % of control; the T/C (endpoint: mean survival time, dose: 37.5 mg/kg/injection, schedule: Q01DX009 (ip), vehicle: saline with Tween-80) is 96 % of control; the T/C (endpoint: mean survival time, dose: 75.0 mg/kg/injection, schedule: Q01DX009 (ip), vehicle: saline with Tween-80) was 96 % of control; the T/C (endpoint: mean survival time, dose: 75.0 mg/kg/injection, schedule: Q04DX003 (ip), vehicle: saline with Tween-80) is 95 % of control.
On to `C/C=C(\C)C(=O)OC1C(C)=C2C(C1OC(=O)CCCCC)C(C)(OC(C)=O)CC(OC(=O)CCC)C1(O)C2OC(=O)C1(C)O` (centres undefined), for which the T/C (endpoint: median survival time, dose: 0.5 mg/kg/injection, schedule: Q01DX005 (ip), vehicle: Klucel (hydroxypropylcellulose) (HPC)) is 113 % of control; the T/C (endpoint: median survival time, dose: 1.0 mg/kg/injection, schedule: Q01DX005 (ip), vehicle: Klucel (hydroxypropylcellulose) (HPC)) was 118 % of control; the T/C (endpoint: median survival time, dose: 2.0 mg/kg/injection, schedule: Q01DX005 (ip), vehicle: Klucel (hydroxypropylcellulose) (HPC)) was 122 % of control.
For `CCCCc1ccc(N=Cc2ccc(C=Nc3ccc(CCCC)cc3)cc2)cc1`, the T/C runs as follows: under setting [1], 94 % of control; under setting [2], 89 % of control; under setting [3], 89 % of control.
In the case of `CCOP(=S)(OCC)Oc1cccc(NC(=O)N(C)C)c1`, the T/C was 96 % of control under setting [1], 91 % of control under setting [2] and 99 % of control under setting [3].
Regarding `COC(=O)NC1C(C)OC(OC2C/C=C(/C)C3C=CC4C(OC5CC(OC6CC(O)C(OC7CC(O)C(OC)C(C)O7)C(C)O6)C(O)C(C)O5)C(C)CC(C)C4C3(C)/C(O)=C3\C(=O)OC4(CC(C)C(CO)=CC4/C=C\2C)C3=O)CC1(C)[N+](=O)[O-]` (centres undefined), the T/C was 102 % of control (endpoint: median survival time, dose: 12.5 mg/kg/injection, schedule: Q01DX009 (ip), vehicle: Klucel (hydroxypropylcellulose) (HPC)); 109 % of control (endpoint: median survival time, dose: 25.0 mg/kg/injection, schedule: Q01DX009 (ip), vehicle: Klucel (hydroxypropylcellulose) (HPC)); 102 % of control (endpoint: median survival time, dose: 50.0 mg/kg/injection, schedule: Q01DX009 (ip), vehicle: Klucel (hydroxypropylcellulose) (HPC)); 103 % of control (endpoint: median survival time, dose: 100.0 mg/kg/injection, schedule: Q01DX009 (ip), vehicle: Klucel (hydroxypropylcellulose) (HPC)).
For the molecule `O=C(c1ccccc1)C(C(c1ccccc1)N1CCOCC1)N1CCOCC1` (centres undefined), the T/C under setting [1] was 90 % of control; the T/C (endpoint: mean survival time, dose: 200.0 mg/kg/injection, schedule: Q01DX009 (ip), vehicle: saline with Tween-80) was 96 % of control; the T/C under setting [2] is 92 % of control; the T/C (endpoint: mean survival time, dose: 400.0 mg/kg/injection, schedule: Q01DX009 (ip), vehicle: saline with Tween-80) was 93 % of control; the T/C under setting [3] is 97 % of control.
In the case of `COC12[C@@H]3N[C@@H]3CN1C1=C(C(=O)C(NCCSSCCNC3=C(C)C(=O)C4=C(C3=O)C(COC(N)=O)[C@]3(OC)C5N[C@@H]5CN43)=C(C)C1=O)[C@@H]2COC(N)=O` (some centres undefined), the T/C runs as follows: (endpoint: mean survival time, dose: 1.5 mg/kg/injection, schedule: Q01DX001 (ip), vehicle: distilled water + Tween-80) 109 % of control; (endpoint: mean survival time, dose: 1.5 mg/kg/injection, schedule: Q01DX001 (ip), vehicle: water) 110 % of control; (endpoint: mean survival time, dose: 3.0 mg/kg/injection, schedule: Q01DX001 (ip), vehicle: water) 121 % of control; (endpoint: mean survival time, dose: 6.0 mg/kg/injection, schedule: Q01DX001 (ip), vehicle: water) 122 % of control; (endpoint: mean survival time, dose: 12.0 mg/kg/injection, schedule: Q01DX001 (ip), vehicle: distilled water + Tween-80) 162 % of control; (endpoint: mean survival time, dose: 12.0 mg/kg/injection, schedule: Q01DX001 (ip), vehicle: water) 151 % of control. Besides, the T/C was 104 % of control (endpoint: mean survival time, dose: 24.0 mg/kg/injection, schedule: Q01DX001 (ip), vehicle: water); 108 % of control (endpoint: median survival time, dose: 0.05 mg/kg/injection, schedule: Q01DX009 (ip), vehicle: other); 119 % of control (endpoint: median survival time, dose: 0.1 mg/kg/injection, schedule: Q01DX009 (ip), vehicle: other); 119 % of control (endpoint: median survival time, dose: 0.2 mg/kg/injection, schedule: Q01DX009 (ip), vehicle: other); 104 % of control (endpoint: median survival time, dose: 0.2 mg/kg/injection, schedule: Q04DX003 (ip), vehicle: other); 119 % of control (endpoint: median survival time, dose: 0.4 mg/kg/injection, schedule: Q01DX001 (ip), vehicle: other). For the same molecule, the T/C by setting is: (endpoint: median survival time, dose: 0.4 mg/kg/injection, schedule: Q04DX003 (ip), vehicle: other) 110 % of control; (endpoint: median survival time, dose: 0.8 mg/kg/injection, schedule: Q01DX001 (ip), vehicle: other) 116 % of control; (endpoint: median survival time, dose: 0.8 mg/kg/injection, schedule: Q04DX003 (ip), vehicle: other) 124 % of control; (endpoint: median survival time, dose: 1.6 mg/kg/injection, schedule: Q03DX003 (ip), vehicle: other) 151 % of control; (endpoint: median survival time, dose: 3.2 mg/kg/injection, schedule: Q01DX009 (ip), vehicle: other) 161 % of control; (endpoint: median survival time, dose: 3.2 mg/kg/injection, schedule: Q03DX003 (ip), vehicle: other) 154 % of control and 176 % of control. In addition, the T/C is 165 % of control (endpoint: median survival time, dose: 3.2 mg/kg/injection, schedule: Q04DX003 (ip), vehicle: other); 124 % of control (endpoint: median survival time, dose: 6.4 mg/kg/injection, schedule: Q01DX009 (ip), vehicle: other); 173 % of control and 187 % of control (endpoint: median survival time, dose: 6.4 mg/kg/injection, schedule: Q03DX003 (ip), vehicle: other); 178 % of control (endpoint: median survival time, dose: 6.4 mg/kg/injection, schedule: Q04DX003 (ip), vehicle: other); 168 % of control (endpoint: median survival time, dose: 9.6 mg/kg/injection, schedule: Q01DX001 (ip), vehicle: other); 154 % of control (endpoint: median survival time, dose: 9.6 mg/kg/injection, schedule: Q03DX003 (ip), vehicle: other). For the same molecule, the T/C was 169 % of control (endpoint: median survival time, dose: 9.6 mg/kg/injection, schedule: Q04DX003 (ip), vehicle: other) and 160 % of control (endpoint: median survival time, dose: 19.2 mg/kg/injection, schedule: Q01DX001 (ip), vehicle: other).
